# Reference: patent EP3041353B1, “COMPOSITIONS COMPRISING BACTERIOSTATIC AGENTS AND BRILLIANT BLUE G” (priority 2013, dated 2015)
# Columns and labels:
# Format in all cases: cell-based
# [1] = tested on: Escherichia coli (E. coli); assay: Bacteriostatic effect of BAK with BBG/BBR: turbidity after 24 h incubation; set-up: key to Bakterienwachstum nach 24 h Inkubation: +: Bakterienwachstum nach 24 h Inkubation; -: kein Bakterienwachstum nach 24 h Inkubation
# Experimental: (§1) Zur Untersuchung des Einflusses von BBG auf die bakteriostatische Wirkung wurden Bakterien 24 h mit erfindungsgemäßen Zusammensetzungen, Benzalkoniumchlorid (BAK) und Octenidin (Oct) als Bakteriostatikum enthielten, inkubiert. Wenn sich die Inkubationsmischung trübte, wurde das als Bakterienwachstum interpretiert. Zum Vergleich wurde Brillantblau R (BBR) anstelle von BBG eingesetzt. Die Ergebnisse sind in den Tabellen 1-4 wiedergegeben. Tabelle 1: Einfluss von BBG und BBR auf die bakteriostatische Wirkung von BAK gegenüber Escherichia coli (E. coli), + = Bakterienwachstum nach 24 h Inkubation, - = kein Bakterienwachstum nach 24 h Inkubation, R = Brillantblau R (BBR), G = Brillantblau G (BBG).
# Bacillus sp. = assay: as above; set-up: key to Bakterienwachstum nach 24 h Inkubation: +: Bakterienwachstum nach 24 h Inkubation; -: kein Bakterienwachstum nach 24 h Inkubation
# Experimental: as §1
# Tabelle 2: Einfluss von BBG und BBR auf die bakteriostatische Wirkung von BAK gegenüber Bacillus sp., + = Bakterienwachstum nach 24 h Inkubation, - = kein Bakterienwachstum nach 24 h Inkubation, R = Brillantblau R (BBR), G = Brillantblau G (BBG).
# Escherichia coli DH5α = assay: Bacteriostatic effect of Octenidin with BBG: turbidity after 24 h incubation; set-up: key: +: Bakterienwachstum nach 24 h Inkubation; -: kein Bakterienwachstum nach 24 h Inkubation
# Experimental: as §1
# (§2) Gram-negative Bakterien (hier E. coli) sind widerstandsfähiger als Gram-positive Bakterien (hier Bacillus sp.) und wachsen konzentrationsabhängig. […] Tabelle 3: Einfluss von BBG auf die bakteriostatische Wirkung von Octenidin (Oct) gegenüber Gram-negativen Bakterien., + = Bakterienwachstum nach 24 h Inkubation, - = kein Bakterienwachstum nach 24 h Inkubation, BBG = Brillantblau G.
# [2] = tested on: Pseudomonas putida DSM 291; assay: as above; set-up: key: +: Bakterienwachstum nach 24 h Inkubation; -: kein Bakterienwachstum nach 24 h Inkubation
# Experimental: as §1, §2
# Vibrio sp. Gal12 = assay: as above; set-up: key: +: Bakterienwachstum nach 24 h Inkubation; -: kein Bakterienwachstum nach 24 h Inkubation
# Experimental: as §1, §2
# Bacillus megaterium = assay: as above; set-up: key: +: Bakterienwachstum nach 24 h Inkubation; -: kein Bakterienwachstum nach 24 h Inkubation; +/-: geringes Wachstum nach 24 h Inkubation
# Experimental: as §1
# Tabelle 4: Einfluss von BBG auf die bakteriostatische Wirkung von Octenidin (Oct) gegenüber Gram-positiven Bakterien., + = Bakterienwachstum nach 24 h Inkubation, - = kein Bakterienwachstum nach 24 h Inkubation, +/- = geringes Wachstum nach 24 h Inkubation, BBG = Brillantblau G.
compound,measurement,setting,value
"CCOc1ccc(Nc2ccc(C(=C3C=CC(=[N+](CC)Cc4cccc(S(=O)(=O)[O-])c4)C=C3C)c3ccc(N(CC)Cc4cccc(S(=O)(=O)O)c4)cc3C)cc2)cc1 [BBG, Brillantblau G]",Bakterienwachstum nach 24 h Inkubation,"[1]; 0,007% G + BAK 0,01%",-
same,Bakterienwachstum nach 24 h Inkubation,"[1]; 0,007% G + BAK 0,001 %",+
same,Bakterienwachstum nach 24 h Inkubation,"[1]; 0,007% G + BAK 0,0016%",+
same,Bakterienwachstum nach 24 h Inkubation,"[1]; 0,007% G + BAK 0,0025%",+
same,Bakterienwachstum nach 24 h Inkubation,"[1]; 0,007% G + BAK 0,004%",-
same,Bakterienwachstum nach 24 h Inkubation,"[1]; 0,007% G + BAK 0,006%",-
same,Bakterienwachstum nach 24 h Inkubation,"[1]; 0,015% G + BAK 0,01%",-
same,Bakterienwachstum nach 24 h Inkubation,"[1]; 0,015% G + BAK 0,001 %",+
same,Bakterienwachstum nach 24 h Inkubation,"[1]; 0,015% G + BAK 0,0016%",+
same,Bakterienwachstum nach 24 h Inkubation,"[1]; 0,015% G + BAK 0,0025%",+
same,Bakterienwachstum nach 24 h Inkubation,"[1]; 0,015% G + BAK 0,004%",+
same,Bakterienwachstum nach 24 h Inkubation,"[1]; 0,015% G + BAK 0,006%",-
same,Bakterienwachstum nach 24 h Inkubation,"[1]; 0,030% G + BAK 0,01%",+
same,Bakterienwachstum nach 24 h Inkubation,"[1]; 0,030% G + BAK 0,001 %",+
same,Bakterienwachstum nach 24 h Inkubation,"[1]; 0,030% G + BAK 0,0016%",+
same,Bakterienwachstum nach 24 h Inkubation,"[1]; 0,030% G + BAK 0,0025%",+
same,Bakterienwachstum nach 24 h Inkubation,"[1]; 0,030% G + BAK 0,004%",+
same,Bakterienwachstum nach 24 h Inkubation,"[1]; 0,030% G + BAK 0,006%",+
same,Bakterienwachstum nach 24 h Inkubation,"[1]; 0,030% G, Kein BAK",+
same,Einfluss auf die bakteriostatische Wirkung von BAK,"[1]; Gram-negative Bakterien (E. coli), concentration dependent",einen etwas größeren Einfluss als BBR
same,Einfluss auf das Bakterienwachstum,"[1]; dye alone, no BAK (rechte Spalte, Tabelle 1)",beeinflussen das Bakterienwachstum nicht
same,Bakterienwachstum nach 24 h Inkubation,Bacillus sp.; 0.007% G + BAK 0.001%,-
same,Bakterienwachstum nach 24 h Inkubation,Bacillus sp.; 0.007% G + BAK 0.01%,-
same,Bakterienwachstum nach 24 h Inkubation,"Bacillus sp.; 0.030% G, Kein BAK",+
same,Einfluss auf das Bakterienwachstum,"Bacillus sp.; dye alone, no BAK (rechte Spalte, Tabelle 2)",beeinflussen das Bakterienwachstum nicht
same,Bakterienwachstum nach 24 h Inkubation,"Escherichia coli DH5α; 0,007% BBG + Octenidin 0,01%",-
same,Bakterienwachstum nach 24 h Inkubation,"Escherichia coli DH5α; 0,007% BBG + Octenidin 0,002%",+
same,Bakterienwachstum nach 24 h Inkubation,"Escherichia coli DH5α; 0,007% BBG + Octenidin 0,003%",-
same,Bakterienwachstum nach 24 h Inkubation,"Escherichia coli DH5α; 0,007% BBG + Octenidin 0,005%",-
same,Bakterienwachstum nach 24 h Inkubation,"Escherichia coli DH5α; 0,007% BBG + Octenidin 0,007%",-
same,Bakterienwachstum nach 24 h Inkubation,"Escherichia coli DH5α; 0,007% BBG + Octenidin 0,009%",-
same,Bakterienwachstum nach 24 h Inkubation,"Escherichia coli DH5α; 0,007% BBG, Octenidin 0%",+
same,Bakterienwachstum nach 24 h Inkubation,"Escherichia coli DH5α; 0,015% BBG + Octenidin 0,01%",-
same,Bakterienwachstum nach 24 h Inkubation,"Escherichia coli DH5α; 0,015% BBG + Octenidin 0,002%",+
same,Bakterienwachstum nach 24 h Inkubation,"Escherichia coli DH5α; 0,015% BBG + Octenidin 0,003%",+
same,Bakterienwachstum nach 24 h Inkubation,"Escherichia coli DH5α; 0,015% BBG + Octenidin 0,005%",+
same,Bakterienwachstum nach 24 h Inkubation,"Escherichia coli DH5α; 0,015% BBG + Octenidin 0,007%",-
same,Bakterienwachstum nach 24 h Inkubation,"Escherichia coli DH5α; 0,015% BBG + Octenidin 0,009%",-
same,Bakterienwachstum nach 24 h Inkubation,"Escherichia coli DH5α; 0,015% BBG, Octenidin 0%",+
same,Bakterienwachstum nach 24 h Inkubation,"Escherichia coli DH5α; 0,030% BBG + Octenidin 0,01%",+
same,Bakterienwachstum nach 24 h Inkubation,"Escherichia coli DH5α; 0,030% BBG + Octenidin 0,002%",+
same,Bakterienwachstum nach 24 h Inkubation,"Escherichia coli DH5α; 0,030% BBG + Octenidin 0,003%",+
same,Bakterienwachstum nach 24 h Inkubation,"Escherichia coli DH5α; 0,030% BBG + Octenidin 0,005%",+
same,Bakterienwachstum nach 24 h Inkubation,"Escherichia coli DH5α; 0,030% BBG + Octenidin 0,007%",+
same,Bakterienwachstum nach 24 h Inkubation,"Escherichia coli DH5α; 0,030% BBG + Octenidin 0,009%",+
same,Bakterienwachstum nach 24 h Inkubation,"Escherichia coli DH5α; 0,030% BBG, Octenidin 0%",+
same,Bakterienwachstum nach 24 h Inkubation,"[2]; 0,007% BBG + Octenidin 0,01%",-
same,Bakterienwachstum nach 24 h Inkubation,"[2]; 0,007% BBG + Octenidin 0,002%",+
same,Bakterienwachstum nach 24 h Inkubation,"[2]; 0,007% BBG + Octenidin 0,003%",-
same,Bakterienwachstum nach 24 h Inkubation,"[2]; 0,007% BBG + Octenidin 0,005%",-
same,Bakterienwachstum nach 24 h Inkubation,"[2]; 0,007% BBG + Octenidin 0,007%",-
same,Bakterienwachstum nach 24 h Inkubation,"[2]; 0,007% BBG + Octenidin 0,009%",-
same,Bakterienwachstum nach 24 h Inkubation,"[2]; 0,007% BBG, Octenidin 0%",+
same,Bakterienwachstum nach 24 h Inkubation,"[2]; 0,015% BBG + Octenidin 0,01%",-
same,Bakterienwachstum nach 24 h Inkubation,"[2]; 0,015% BBG + Octenidin 0,002%",+
same,Bakterienwachstum nach 24 h Inkubation,"[2]; 0,015% BBG + Octenidin 0,003%",+
same,Bakterienwachstum nach 24 h Inkubation,"[2]; 0,015% BBG + Octenidin 0,005%",+
same,Bakterienwachstum nach 24 h Inkubation,"[2]; 0,015% BBG + Octenidin 0,007%",-
same,Bakterienwachstum nach 24 h Inkubation,"[2]; 0,015% BBG + Octenidin 0,009%",-
same,Bakterienwachstum nach 24 h Inkubation,"[2]; 0,015% BBG, Octenidin 0%",+
same,Bakterienwachstum nach 24 h Inkubation,"[2]; 0,030% BBG + Octenidin 0,01%",+
same,Bakterienwachstum nach 24 h Inkubation,"[2]; 0,030% BBG + Octenidin 0,002%",+
same,Bakterienwachstum nach 24 h Inkubation,"[2]; 0,030% BBG + Octenidin 0,003%",+
same,Bakterienwachstum nach 24 h Inkubation,"[2]; 0,030% BBG + Octenidin 0,005%",+
same,Bakterienwachstum nach 24 h Inkubation,"[2]; 0,030% BBG + Octenidin 0,007%",+
same,Bakterienwachstum nach 24 h Inkubation,"[2]; 0,030% BBG + Octenidin 0,009%",+
same,Bakterienwachstum nach 24 h Inkubation,"[2]; 0,030% BBG, Octenidin 0%",+
same,Bakterienwachstum nach 24 h Inkubation,"Vibrio sp. Gal12; 0,007% BBG + Octenidin 0,01%",-
same,Bakterienwachstum nach 24 h Inkubation,"Vibrio sp. Gal12; 0,007% BBG + Octenidin 0,002%",+
same,Bakterienwachstum nach 24 h Inkubation,"Vibrio sp. Gal12; 0,007% BBG + Octenidin 0,003%",-
same,Bakterienwachstum nach 24 h Inkubation,"Vibrio sp. Gal12; 0,007% BBG + Octenidin 0,005%",-
same,Bakterienwachstum nach 24 h Inkubation,"Vibrio sp. Gal12; 0,007% BBG + Octenidin 0,007%",-
same,Bakterienwachstum nach 24 h Inkubation,"Vibrio sp. Gal12; 0,007% BBG + Octenidin 0,009%",-
same,Bakterienwachstum nach 24 h Inkubation,"Vibrio sp. Gal12; 0,007% BBG, Octenidin 0%",+
same,Bakterienwachstum nach 24 h Inkubation,"Vibrio sp. Gal12; 0,015% BBG + Octenidin 0,01%",-
same,Bakterienwachstum nach 24 h Inkubation,"Vibrio sp. Gal12; 0,015% BBG + Octenidin 0,002%",+
same,Bakterienwachstum nach 24 h Inkubation,"Vibrio sp. Gal12; 0,015% BBG + Octenidin 0,003%",+
same,Bakterienwachstum nach 24 h Inkubation,"Vibrio sp. Gal12; 0,015% BBG + Octenidin 0,005%",+
same,Bakterienwachstum nach 24 h Inkubation,"Vibrio sp. Gal12; 0,015% BBG + Octenidin 0,007%",-
same,Bakterienwachstum nach 24 h Inkubation,"Vibrio sp. Gal12; 0,015% BBG + Octenidin 0,009%",-
same,Bakterienwachstum nach 24 h Inkubation,"Vibrio sp. Gal12; 0,015% BBG, Octenidin 0%",+
same,Bakterienwachstum nach 24 h Inkubation,"Vibrio sp. Gal12; 0,030% BBG + Octenidin 0,01%",+
same,Bakterienwachstum nach 24 h Inkubation,"Vibrio sp. Gal12; 0,030% BBG + Octenidin 0,002%",+
same,Bakterienwachstum nach 24 h Inkubation,"Vibrio sp. Gal12; 0,030% BBG + Octenidin 0,003%",+
same,Bakterienwachstum nach 24 h Inkubation,"Vibrio sp. Gal12; 0,030% BBG + Octenidin 0,005%",+
same,Bakterienwachstum nach 24 h Inkubation,"Vibrio sp. Gal12; 0,030% BBG + Octenidin 0,007%",+
same,Bakterienwachstum nach 24 h Inkubation,"Vibrio sp. Gal12; 0,030% BBG + Octenidin 0,009%",+
same,Bakterienwachstum nach 24 h Inkubation,"Vibrio sp. Gal12; 0,030% BBG, Octenidin 0%",+
same,Bakterienwachstum nach 24 h Inkubation,"Bacillus megaterium; 0,015% BBG + Octenidin 0,003%",+/-
same,Bakterienwachstum nach 24 h Inkubation,"Bacillus megaterium; 0,030% BBG + Octenidin 0,005%",+/-
same,Bakterienwachstum nach 24 h Inkubation,"Bacillus megaterium; 0,030% BBG + Octenidin 0,007%",+/-
